Results from ChEMBL document CHEMBL3046126, “Synthesis and Herbicidal Activity of New Oxazolidinedione Derivatives” (J Pestic Sci, 1999).

Tests used:
[1] = test system: Rotala indica; assay: Pre-emergence herbicidal activity against Rotala indica assessed as phytotoxic weed control visual ratings at 2.5 kg ai/ha measured after 14 days post treatment under flooded conditions; format: functional
[2] = test system: Schoenoplectiella juncoides; assay: Pre-emergence herbicidal activity against Schoenoplectiella juncoides assessed as phytotoxic weed control visual ratings at 2.5 kg ai/ha measured after 14 days post treatment under flooded conditions; format: functional
[3] = test system: Lindernia procumbens; assay: Pre-emergence herbicidal activity against Lindernia procumbens assessed as phytotoxic weed control visual ratings at 2.5 kg ai/ha measured after 14 days post treatment under flooded conditions; format: functional
[4] = test system: Pontederia vaginalis; assay: Pre-emergence herbicidal activity against Monochoria vaginalis assessed as phytotoxic weed control visual ratings at 2.5 kg ai/ha measured after 14 days post treatment under flooded conditions; format: functional
[5] = test system: Cyperus difformis; assay: Pre-emergence herbicidal activity against Cyperus difformis assessed as phytotoxic weed control visual ratings at 2.5 kg ai/ha measured after 14 days post treatment under flooded conditions; format: functional
[6] = test system: Oryza sativa; assay: Pre-emergence phytotoxicity against Oryza sativa cv. Koshihikari (rice) assessed as phytotoxic crop injury visual ratings at 2.5 kg ai/ha measured after 14 days post treatment under flooded conditions; format: organism-based; settings: in vivo, other, 336 h
[7] = test system: Echinochloa oryzicola; assay: Pre-emergence herbicidal activity against Echinochloa oryzicola assessed as phytotoxic weed control visual ratings at 2.5 kg ai/ha measured after 14 days post treatment under flooded conditions; format: functional
[8] = test system: Elatine triandra; assay: Pre-emergence herbicidal activity against Elatine triandra assessed as phytotoxic weed control visual ratings at 2.5 kg ai/ha measured after 14 days post treatment under flooded conditions; format: functional
[9] = test system: Pontederia vaginalis; assay: Pre-emergence herbicidal activity against Monochoria vaginalis assessed as phytotoxic weed control visual ratings at 1.25 kg ai/ha measured after 14 days post treatment under flooded conditions; format: functional
[10] = test system: Schoenoplectiella juncoides; assay: Pre-emergence herbicidal activity against Schoenoplectiella juncoides assessed as phytotoxic weed control visual ratings at 1.25 kg ai/ha measured after 14 days post treatment under flooded conditions; format: functional
[11] = test system: Echinochloa oryzicola; assay: Pre-emergence herbicidal activity against Echinochloa oryzicola assessed as phytotoxic weed control visual ratings at 1.25 kg ai/ha measured after 14 days post treatment under flooded conditions; format: functional
[12] = test system: Oryza sativa; assay: Pre-emergence phytotoxicity against Oryza sativa cv. Koshihikari (rice) assessed as phytotoxic crop injury visual ratings at 1.25 kg ai/ha measured after 14 days post treatment under flooded conditions; format: organism-based; settings: in vivo, other, 336 h
[13] = test system: Elatine triandra; assay: Pre-emergence herbicidal activity against Elatine triandra assessed as phytotoxic weed control visual ratings at 1.25 kg ai/ha measured after 14 days post treatment under flooded conditions; format: functional
[14] = test system: Rotala indica; assay: Pre-emergence herbicidal activity against Rotala indica assessed as phytotoxic weed control visual ratings at 1.25 kg ai/ha measured after 14 days post treatment under flooded conditions; format: functional
[15] = test system: Lindernia procumbens; assay: Pre-emergence herbicidal activity against Lindernia procumbens assessed as phytotoxic weed control visual ratings at 1.25 kg ai/ha measured after 14 days post treatment under flooded conditions; format: functional
[16] = test system: Cyperus difformis; assay: Pre-emergence herbicidal activity against Cyperus difformis assessed as phytotoxic weed control visual ratings at 1.25 kg ai/ha measured after 14 days post treatment under flooded conditions; format: functional
[17] = test system: Cyperus difformis; assay: Pre-emergence herbicidal activity against Cyperus difformis assessed as phytotoxic weed control visual ratings at 25 g ai/ha measured after 14 days post treatment under flooded conditions; format: functional
[18] = test system: Amaranthus viridis; assay: Pre-emergence herbicidal activity against Amaranthus viridis assessed as phytotoxic weed control visual ratings at 500 g ai/ha measured after 14 days post treatment under upland field conditions; format: functional
[19] = test system: Echinochloa oryzicola; assay: Pre-emergence herbicidal activity against Echinochloa oryzicola assessed as phytotoxic weed control visual ratings at 25 g ai/ha measured after 14 days post treatment under flooded conditions; format: functional
[20] = test system: Lindernia procumbens; assay: Pre-emergence herbicidal activity against Lindernia procumbens assessed as phytotoxic weed control visual ratings at 25 g ai/ha measured after 14 days post treatment under flooded conditions; format: functional
[21] = test system: Oryza sativa; assay: Pre-emergence phytotoxicity against Oryza sativa cv. Koshihikari (rice) assessed as phytotoxic crop injury visual ratings at 25 g ai/ha measured after 14 days post treatment under flooded conditions; format: organism-based; settings: in vivo, other, 336 h
[22] = test system: Rotala indica; assay: Pre-emergence herbicidal activity against Rotala indica assessed as phytotoxic weed control visual ratings at 25 g ai/ha measured after 14 days post treatment under flooded conditions; format: functional
[23] = test system: Chenopodium album; assay: Pre-emergence herbicidal activity against Chenopodium album assessed as phytotoxic weed control visual ratings at 500 g ai/ha measured after 14 days post treatment under upland field conditions; format: functional
[24] = test system: Zea mays; assay: Pre-emergence phytotoxicity against Zea mays (maize) assessed as phytotoxic crop injury visual ratings at 500 g ai/ha measured after 14 days post treatment under upland field conditions; format: organism-based; settings: in vivo, other, 336 h
[25] = test system: Digitaria ciliaris; assay: Pre-emergence herbicidal activity against Digitaria ciliaris assessed as phytotoxic weed control visual ratings at 500 g ai/ha measured after 14 days post treatment under upland field conditions; format: functional
[26] = test system: Schoenoplectiella juncoides; assay: Pre-emergence herbicidal activity against Schoenoplectiella juncoides assessed as phytotoxic weed control visual ratings at 25 g ai/ha measured after 14 days post treatment under flooded conditions; format: functional
[27] = test system: Elatine triandra; assay: Pre-emergence herbicidal activity against Elatine triandra assessed as phytotoxic weed control visual ratings at 25 g ai/ha measured after 14 days post treatment under flooded conditions; format: functional
[28] = test system: Pontederia vaginalis; assay: Pre-emergence herbicidal activity against Monochoria vaginalis assessed as phytotoxic weed control visual ratings at 25 g ai/ha measured after 14 days post treatment under flooded conditions; format: functional
[29] = test system: Echinochloa crus-galli; assay: Pre-emergence herbicidal activity against Echinochloa crus-galli (barnyard grass) assessed as phytotoxic weed control visual ratings at 500 g ai/ha measured after 14 days post treatment under upland field conditions; format: functional

Compound	Phytotoxicity [1]	Phytotoxicity [2]	Phytotoxicity [3]	Phytotoxicity [4]	Phytotoxicity [5]	Phytotoxicity [6]	Phytotoxicity [7]	Phytotoxicity [8]	Phytotoxicity [17]	Phytotoxicity [18]	Phytotoxicity [19]	Phytotoxicity [20]	Phytotoxicity [21]	Phytotoxicity [22]	Phytotoxicity [23]	Phytotoxicity [24]	Phytotoxicity [25]	Phytotoxicity [26]	Phytotoxicity [27]	Phytotoxicity [28]	also measured
CC(C)=C1OC(=O)N(c2c(Cl)cc(Cl)cc2Cl)C1=O	100%	20%	100%	100%	100%	0%	30%	100%													
C=CC1(C)OC(=O)N(c2cc(Cl)cc(Cl)c2)C1=O (stereo not given) [VINCLOZOLIN]	50%	30%	50%	50%	50%	0%	90%	50%													
CC/C(C)=C1/OC(=O)N(c2ccc(Cl)cc2)C1=O																					Phytotoxicity [9]: 100%; Phytotoxicity [10]: 100%; Phytotoxicity [11]: 100%; Phytotoxicity [12]: 20%; Phytotoxicity [13]: 100%; Phytotoxicity [14]: 100%; Phytotoxicity [15]: 100%; Phytotoxicity [16]: 100%
CC(C)=C1OC(=O)N(c2cc(Cl)cc(Cl)c2)C1=O	50%	30%	50%	50%	30%	0%	0%	50%													
CC(C)=C1OC(=O)N(c2ccccc2Cl)C1=O	0%	0%	0%	0%	0%	0%	0%	0%													
CCCCCCOc1cc(N2C(=O)OC(=C(C)C)C2=O)c(F)cc1Cl									80%	100%	10%	70%	0%	70%	50%	0%	10%	60%	70%	90%	Phytotoxicity [29]: 10%
CCOc1cc(N2C(=O)OC(=C(C)C)C2=O)c(F)cc1Cl									100%	100%	30%	100%	10%	100%	90%	10%	90%	60%	100%	100%	Phytotoxicity [29]: 50%
CC(C)=C1OC(=O)N(c2cccc(Cl)c2)C1=O	30%	10%	30%	30%	30%	0%	0%	30%													
CC(C)=C1OC(=O)N(c2cc(O)c(Cl)cc2F)C1=O									30%	0%	0%	10%	0%	10%	10%	0%	0%	0%	10%	10%	Phytotoxicity [29]: 0%
CCC(C)Oc1cc(N2C(=O)OC(=C(C)C)C2=O)c(F)cc1Cl (stereo not given)									100%	90%	80%	100%	10%	100%	10%	0%	80%	100%	100%	100%	Phytotoxicity [29]: 20%
